Experimental findings from patent publication US20080234345A1, “METHOD FOR REDUCING OR ALLEVIATING INFLAMMATION IN THE DIGESTIVE TRACT” (Gene Logic Inc., priority 2006, published 2008) are described below.

The test system of the test is NF-κB dependent transcription. Kind of test: In vivo basal NF-κB dependent transcription in NF-κB::Luc reporter mice, abdominal imaging. To be noted: 4 hours. The text has this: GL1001 was further tested for in vivo anti-inflammatory activity by examining its effects on basal levels of NF-κB dependent transcription in mice engineered in the germline with a construct containing an NF-κB enhancer linked to a luciferase gene (i.e., NF-κB::Luc mice), such that this NF-κB reporter construct is present in all cells of the mice.
More particularly, transgenic NF-κB::Luc mice were generated using three NF-κB response elements from the Igκ light chain promoter fused to a firefly luciferase gene as described by Carlsen et al. (2002) J. Immunol. 168:1441-1446. Pronuclear microinjection of purified construct DNA was used to generate transgenic founders in the C57BL/6 XCBA/J background. Founders were subsequently back crossed to the C57BL/6 albino background. […] Signal data were also quantitated and archived using the Living Image® software. Photons of light were quantitated using an oval region of interest (ROI) of varying sizes depending on the procedure, as described further below.
To test for in vivo effects of GL1001 on basal levels of NF-κB dependent transcription, male NF-κB::Luc mice were subjected to quantitative in vivo imaging of the abdominal area (using a fixed ROI of 2.76×3.7 cm) as described above, immediately before, and at 2, […]

For the molecule `CC(C)C[C@H](N[C@@H](Cc1cncn1Cc1cc(Cl)cc(Cl)c1)C(=O)O)C(=O)O` [GL1001, (S,S)-2-[1-carboxy-2-[3-(3,5-dichlorobenzyl)-3H-imidazol-4-yl]-ethylamino]-4-methylpentanoic acid], the “inhibition of basal in vivo levels of NF-κB dependent transcription in abdominal ROI” value by setting is: (300 mg/kg subcutaneous, p<0.01) “over 40%”; (both lower doses, subcutaneous) “lesser but still significant extents”.
